# Reference: patent US9867798B2, “Ladostigil therapy for immunomodulation” (priority 2012, dated 2018)
# What was measured:
# [1] = system: ChE; experiment: ChE inhibition in heart or brain of treated rats; type: in vivo
# [2] = system: IL-1β and MPO in colon; experiment: Cytokines and myeloperoxidase in colon of DSS-treated mice; type: in vivo; conditions: 8th day of DSS ingestion, 5 vs 10 mg/kg
# Protocol: TNF-α, IL-6, and IL-1β levels in homogenized colon were measured by means of a BioLegend ELISA Mouse kit. One cm of colon was homogenized in ice-cold PBS buffer containing protease inhibitor cocktail (Sigma, St. Louis, Mo., USA; dilution 1:100) using a Polytron homogenizer, and then centrifuged for 15 min at 14,000 rpm at 4° C. Supernatants were diluted 1:5 in diluent buffer supplied in the kit and applied to 96-well MaxiSorb Elisa plates according to manufacturer's protocol. Total protein concentration in the tissue supernatant was measured by means of a BCA kit. Levels of cytokines are expressed as pg/mg total tissue protein.
# Neutrophil infiltration was monitored by measuring myeloperoxidase (MPO) activity in colon segments according to the protocol described by Bradley (1982) in 96-well micro-titer plates by mixing 10 μl of the supernatant with 290 μl of o-dianisidine dihydrochloride solution. Data were interpolated from a MPO standard curve. MPO activity was expressed as units per μg total protein measured in the sample by Pierce BCA Protein Assay Kit as described above.
smiles,measurement,setting,value
"C#CCN[C@@H]1CCc2ccc(OC(=O)N(C)CC)cc21 [Ladostigil, R(+)-6-(N-methyl, N-ethyl-carbamoyloxy)-N′-propargyl-1-aminoindan]",ChE inhibition in the heart or brain,[1]; 1 mg/kg/day,No significant ChE inhibition
same,ChE activity inhibited,[1]; 8.5 mg/kg/day,30%
same,Reduction of IL-1β levels and MPO activity in colon,[2],5 mg/kg was more effective than 10 mg/kg
